Measured values published in PubChem BioAssay (NCI).
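These data come from cells grown in 96-well plates and exposed to compound for 48 hours at five concentrations. Abbreviation: GI50, concentration required for 50% inhibition of growth. The concentration for full growth arrest is given as TGI.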

Assays:
Test in all cases: NCI anticancer screen, dose series, 48 h
NCI-H460 lung = system: NCI-H460 lung
SNB-19 CNS = system: SNB-19 CNS
NCI-H23 lung = system: NCI-H23 lung
SK-MEL-2 melanoma = system: SK-MEL-2 melanoma
HT29 colon = system: HT29 colon
HOP-92 NSCLC = system: HOP-92 NSCLC
786-0 renal = system: 786-0 renal
A549 NSCLC = system: A549 NSCLC
M14 melanoma = system: M14 melanoma

SMILES | GI50 (NCI-H460 lung) | TGI (NCI-H460 lung) | GI50 (SNB-19 CNS) | TGI (SNB-19 CNS) | GI50 (NCI-H23 lung) | TGI (NCI-H23 lung) | GI50 (SK-MEL-2 melanoma) | TGI (SK-MEL-2 melanoma) | GI50 (HT29 colon) | TGI (HT29 colon) | GI50 (HOP-92 NSCLC) | TGI (HOP-92 NSCLC) | GI50 (786-0 renal) | TGI (786-0 renal) | GI50 (A549 NSCLC) | TGI (A549 NSCLC) | GI50 (M14 melanoma) | TGI (M14 melanoma)
Nc1nc2ccc(-c3nc4ccc5[nH]ncc5c4c4c3CCC4)cc2s1 | 0.208 µM | 5.12 µM | 0.318 µM | 11.4 µM | 0.546 µM | 8.25 µM | 0.567 µM | 8.08 µM | 0.191 µM | 19.8 µM | 0.66 µM | 6.87 µM | 0.343 µM | 7.79 µM | 0.44 µM | 23.9 µM | 0.172 µM | 8.86 µM
CCOC(=O)NC(=O)c1cn(CCN2CCN(C(=O)NCCCCCCNC(=O)N3CCN(CCn4cc(C(=O)NC(=O)OCC)c(=O)[nH]c4=O)CC3)CC2)c(=O)[nH]c1=O |  | > 100 µM |  | > 100 µM |  | > 100 µM |  | > 100 µM |  | > 100 µM |  | > 100 µM |  | > 100 µM |  | > 100 µM |  | > 100 µM
O=C1/C(=C/c2ccc([N+](=O)[O-])cc2)CN(C(=O)CCN2CCC(=NO)CC2)C/C1=C\c1ccc([N+](=O)[O-])cc1 | 1.15 µM | 3.95 µM | 1.08 µM | 5.13 µM | 1.53 µM | 4.58 µM | 4.74 µM | 16.6 µM | 0.477 µM | 1.93 µM | 2.81 µM | 9.36 µM | 1.06 µM | 3.66 µM | 2.85 µM | 12.4 µM | 1.51 µM | 6.4 µM
O=C(NCC1CC1)c1ccc(-c2cccc(C(=O)NC3CC3)c2)cc1 | > 25 µM | > 25 µM | > 25 µM | > 25 µM | > 25 µM | > 25 µM | > 25 µM | > 25 µM | > 25 µM | > 25 µM | 6.66 µM | > 25 µM | > 25 µM | > 25 µM | > 25 µM | > 25 µM | > 25 µM | > 25 µM
N#C[Se]Cc1cc(-c2ccccc2)n(-c2ccc(S(N)(=O)=O)cc2)n1 | 0.264 µM | 0.743 µM | 0.587 µM | 1.88 µM | 0.495 µM | 2.55 µM | 2.32 µM | 5.6 µM | 1.46 µM | 3.36 µM | 2.1 µM | 4.61 µM | 2.63 µM | 6.49 µM | 0.605 µM | 2.12 µM | 0.24 µM | 0.659 µM
Nc1ncn([C@@H]2S[C@H](CO)[C@@H](O)[C@@H]2F)c(=O)n1 | 0.442 µM | > 100 µM | 0.662 µM | > 100 µM | 0.347 µM | > 100 µM | > 100 µM | > 100 µM | 2.45 µM | > 100 µM | 0.623 µM | > 100 µM | 0.337 µM | > 100 µM | 0.512 µM | > 100 µM | 0.377 µM | 30.1 µM
C[C@@H](NC(C#N)c1ccco1)c1ccccc1 (stereo partly specified) |  | > 100 µM |  | > 100 µM |  | > 100 µM |  |  |  | > 100 µM |  | > 100 µM |  | > 100 µM |  | > 100 µM |  | > 100 µM
c1ccc(-c2nc(-c3ccccn3)nc(-c3ccccn3)n2)nc1 | 12.1 µM | > 100 µM | > 100 µM | > 100 µM | 54.9 µM | > 100 µM | 63.3 µM | > 100 µM | 6.73 µM | > 100 µM | 8.99 µM | 92 µM | 61.5 µM | > 100 µM | 47.9 µM | > 100 µM | 31.4 µM | > 100 µM
O=c1oc2ccccc2c2c1Sc1ccccc1N2 |  | > 100 µM |  | > 100 µM |  | > 100 µM |  | > 100 µM |  | > 100 µM |  | > 100 µM |  | > 100 µM |  |  |  | > 100 µM
CCCN1C(=O)NC(=O)C(CC)(N2C(=O)c3c(F)c(F)c(F)c(F)c3C2=O)C1=O (stereo unspecified) | 2.24 µM | 5.71 µM | 2.44 µM | 6.53 µM | 2.17 µM | 5.77 µM | 2.95 µM | 8.32 µM | 1.4 µM | 3.62 µM | 1.68 µM | 3.37 µM | 2.66 µM | 7.75 µM | 2.84 µM | 8.45 µM | 2.2 µM | 6.37 µM
CN(C)c1cc2ccccc2oc1=O |  | > 100 µM |  | > 100 µM |  | > 100 µM |  | > 100 µM |  | > 100 µM |  | > 100 µM |  | > 100 µM |  | > 100 µM |  | > 100 µM
CC1=C([Se]CC(OC(=O)CC[Se]c2ccccc2)C(=O)NC(C)(C)C)C(=O)c2ccccc2C1=O (stereo unspecified) | 0.426 µM | 2.02 µM | 0.638 µM | 2.05 µM | 1.56 µM | 3.11 µM | 2 µM | 3.7 µM | 1.96 µM | 3.64 µM | 1.55 µM | 2.92 µM | 1.83 µM | 3.23 µM | 1.63 µM | 3.61 µM | 1.67 µM | 3.21 µM
COc1ccc(C2=Nn3c(nnc3-c3cc(Cl)cc(Cl)c3Cl)SC2)cc1 | 0.502 µM | > 100 µM | 0.402 µM | 55.1 µM | 0.701 µM | > 100 µM | 1.21 µM | > 55.7 µM | 0.336 µM |  | > 33.9 µM | > 100 µM | 0.411 µM |  | 0.631 µM | > 37.4 µM | 0.349 µM | > 34 µM
CCSCCCSCCSCC |  | > 100 µM |  | > 100 µM |  | > 100 µM |  |  |  | > 100 µM |  |  |  | > 100 µM |  | > 100 µM |  | > 100 µM
CN(C)CCNC(=O)Cn1ccc(=O)c2cc([N+](=O)[O-])ccc21 |  | > 100 µM |  | > 100 µM |  | > 100 µM |  | > 100 µM |  | > 100 µM |  | > 100 µM |  | > 100 µM |  | > 100 µM |  | > 100 µM
COc1cc(C)ccc1C(=O)c1ccc(C)cc1OC | 3.39 µM | > 100 µM | 7.31 µM | > 100 µM | 6.31 µM | > 100 µM | 2.45 µM | > 100 µM | 1.85 µM | 7.99 µM |  |  | 6.29 µM | > 100 µM | 3.35 µM | > 100 µM | 1.32 µM | > 100 µM
